pIC50: −log10 of the molar value. Like-named read-outs stand apart in the source and are kept apart here. One block for each molecule: values may come before it.
How the values were obtained:
[1] = target: T1, Human Platelet PLA2 (Homo sapiens, UniProt P14555); assay: in vitro isolated phospholipase A2 assay, human platelet PLA2; format: biochemical; conditions: for inhibition at 10 µM: read-out: % Inhibition at 10 μM HP
T1 construct: a) Semipurified human platelet acid extract PLA2 (in 10 mM sodium; from tissue; host or cells: human platelets (acid extract, semipurified)
T1 sequence (P14555 21-144): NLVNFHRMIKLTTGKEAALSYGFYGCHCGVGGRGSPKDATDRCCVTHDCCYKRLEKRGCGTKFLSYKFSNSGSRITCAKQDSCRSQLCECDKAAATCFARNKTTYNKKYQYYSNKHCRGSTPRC
Procedure: (§1) The compounds of the invention are tested in an in vitro isolated phospholipase A2 assay to determine the ability of the test compounds to inhibit the release of arachidonic acid from an arachidonic acid-containing substrate by the action of phospholipase A2 enzyme from human and non-human sources.
(§2) Into a 15 mL polypropylene tube are added the following:
(§3) ^6 Two human PLA2 enzymes are used:
a) Semipurified human platelet acid extract PLA2 (in 10 mM sodium
acetate buffer, pH 4.5). Remove protein precipitate by centrifugation at
about 2200 rpm for 10 minutes.
(§4) Incubate the 100 μL reaction mixture for 10 minutes at 37° C. in a shaking water bath. The reaction is terminated by the addition of 2 mL tetrahydrofuran, followed by vortexing. NH2 columns (100 μg/mL-Analytichem International) are conditioned with 0.5 mL tetrahydrofuran followed by 0.5 mL tetrahydrofuran/water (2 mL:0.1 mL, v/v).
(§5) The sample is loaded onto the columns and slowly drawn through them. The hydrolyzed arachidonic acid retained in the columns is eluted therefrom with 1 mL tetrahydrofuran/glacial acetic acid (2%). The arachidonic acid is transferred to scintillation vials and quantitated by β-counting analysis. A "total counts" sample is prepared by pipetting 25 μL ^3 H-arachidonate E. coli directly into a scintillation vial to which is added 1 mL tetrahydrofuran. 10 mL aquasol (scintillation cocktail) is added to all samples.

[2] = target: T2, Human Synovial PLA2 (Homo sapiens, UniProt P14555); assay: in vitro isolated phospholipase A2 assay, human synovial fluid PLA2; format: biochemical; conditions: for inhibition at 10 µM: read-out: % Inhibition at 10 μM HSF
T2 construct: b) Purified human synovial fluid; from tissue; host or cells: human synovial fluid (purified)
T2 sequence (P14555 21-144): T1 sequence (P14555 21-144)
Procedure: as §1, §2, §3
b) Purified human synovial fluid.
as §4, §5

[3] = test system: LTC4 (lipoxygenase pathway); assay: in vivo murine zymosan peritonitis assay, LTC4; set-up: species or system mouse (male CD-1); conditions: for ED50: Mus musculus, po, standard drugs
Procedure: (§6) The compounds of the invention are evaluated for their ability to inhibit the lipoxygenase and/or cyclooxygenase pathways of arachidonic acid metabolism in the in vivo murine zymosan peritonitis assay.
(§7) Male CD-1 mice (8 weeks old) are placed in plastic boxes in groups of six. Animals are injected with 1 mL i.p. of either 1% zymosan in pyrogen free 0.9% saline or saline (unstimulated control). Compounds are dosed orally 1 hour prior to zymosan injection. Twenty minutes after zymosan injection, the mice are asphyxiated by CO2 inhalation and the peritoneal cavity is lavaged with 2 mL ice cold Hanks Balanced Salt Solution (HBSS) without CaCl2, MgSO4 . 7H2 O and MgCl2 . 6H2 O. Peritoneal lavage fluid from each mouse is removed by syringe and placed in 5 mL plastic test tubes put on ice and volume is noted. Preparation of samples for evaluation by ELISA is as follows: Samples are centrifuged at 800 xg for 15 minutes; 1 mL of the supernatant is added to 8 mL ice cold methanol and kept at -70° C. overnight to precipitate protein; and samples are then centrifuged at 800 xg for 15 minutes, followed by a drying procedure in a Savant speed vac concentrator. The samples are reconstituted with 1 mL ice cold ELISA buffer and stored at -70° C. until assayed. The assay for eicosanoids (LTC4 and 6-keto-PGF1α) is performed according to conventional ELISA procedures.
(§8) Compounds to be tested orally are suspended in 0.5% Tween 80. Compounds to be tested intraperitoneally are suspended in 0.5% methylcellulose in 0.9% saline.
(§9) The total metabolite level in lavage fluid/mouse is calculated and the significance is determined by a one-way analysis of variance with LSD comparisons to control (p≤0.05). Drug effects are expressed as a percent change from control values.

[4] = test system: LTB4 synthesis by rat glycogen-elicited polymorphonuclear leukocytes (PMN); assay: inhibition of LTB4 synthesis by rat glycogen-elicited polymorphonuclear leukocytes; format: cell-based; conditions: Leukocyte
Procedure: Roy. Soc. Med., 74, 831 (1981)]. […] Accordingly, the specificity of action of PLA2 inhibitors can be determined by the activity of test compounds in this assay, which measures the ability of compounds to inhibit the synthesis of LTB4 by rat glycogen-elicited polymorphonuclear leukocytes (PMN) in the presence of exogenous substrate. […] The exudate is centrifuged at 400 xg for 10 minutes. The supernatant fluid is discarded and the cell pellet is resuspended to a concentration of 2.0×10^7 cells/mL in HBSS containing Ca^++ and Mg^++ and 10 μM L-cysteine. […] The reaction is terminated by centrifugation and pelleting cells. Supernatants are then analyzed by HPLC analysis on a 15 cm×4.6 mm ID supelcosil LC-18 (Supelco)(3M) column, using a two solvent system at a flow rate of 1.4 mL total flow as follows: Solvent A: 70:30 17.4 mM H3 PO4 :CH3 CN Solvent B. CH3 CN Gradient: (system is equilibrated with Solvent A) Percent solvent changes are accomplished in a linear fashion. […] 10^4 -2.0×10^4 dpm of eicosanoids of interest are injected in 90 μL EtOH cocktail. […] Results are expressed as percent inhibition at a given compound dose or as an IC50 value.

[5] = test system: T×B2 synthesis by rat glycogen-elicited polymorphonuclear leukocytes (PMN); assay: inhibition of synthesis of the cyclooxygenase product TxB2 by rat polymorphonuclear leukocytes; format: cell-based; conditions: Leukocyte
Procedure: The exudate is centrifuged at 400 xg for 10 minutes. The supernatant fluid is discarded and the cell pellet is resuspended to a concentration of 2.0×10^7 cells/mL in HBSS containing Ca^++ and Mg^++ and 10 μM L-cysteine. […] The reaction is terminated by centrifugation and pelleting cells. Supernatants are then analyzed by HPLC analysis on a 15 cm×4.6 mm ID supelcosil LC-18 (Supelco)(3M) column, using a two solvent system at a flow rate of 1.4 mL total flow as follows: […] In this assay, the procedure of Example 14 is carried out as described. […] The results are calculated as in Example 14 and presented below: […]

[6] = test system: 6-keto-PGF1α /TxB2 (cyclooxygenase pathway); assay: in vivo murine zymosan peritonitis assay, 6-keto-PGF1α /TxB2; set-up: species or system mouse (male CD-1); conditions: for ED50: Mus musculus, po, read-out: ED50 6-keto-PGF1α /TxB2
Procedure: as §6, §7, §8, §9

[7] = human synovial fluid, read-out: IC50 HSF

SMILES: CCCCC/C=C\C/C=C\C/C=C\C/C=C\CCCC(=O)O [Arachidonic Acid, reference compound]
- pIC50 [1]: 5.07
- pIC50 [2]: 5.49

SMILES: NC1=NN(c2cccc(C(F)(F)F)c2)CC1 [BW755C]
- ED50 [3]: < 10 mg/kg

SMILES: O=C(C#CCCCOc1ccc(Cl)cc1)C(F)(F)F [Example 1, 7-(4-Chlorophenoxy)-1,1,1-trifluoro-3-heptyn-2-one]
- inhibition at 10 µM [4]: 89.8%
- inhibition at 10 µM [5]: 24%
- inhibition at 50 µM ([1]; at 50 μM, human platelet, read-out: % Inhibition HP): 54%
- pIC50 [2, 7]: 6.31
- % Inhibition LTC4 ([3]; 100 mg/kg p.o.): 32%
- % Inhibition 6-keto-PGF ([6]; 100 mg/kg p.o.): 15%

SMILES: O=C(C#CCCCn1c2ccccc2c2ccccc21)C(F)(F)F [Example 2, 7-(9H-Carbazol-9-yl)-1,1,1-trifluoro-3-heptyn-2-one]
- inhibition at 10 µM ([1]; human platelet): 7.2%
- pIC50 [2, 7]: 7.37

SMILES: O=C(C#CCCCOc1ccc(F)cc1)C(F)(F)F [Example 3, 1,1,1-Trifluoro-7-(4-fluorophenoxy)-3-heptyn-2-one]
- pIC50 [2, 7]: 5.05

SMILES: CC(C)(C)c1ccc(OCCCC#CC(=O)C(F)(F)F)cc1 [Example 4, 7-[4-(1,1-Dimethylethyl)phenoxy]-1,1,1-trifluoro-3-heptyn-2-one]
- pIC50 [2, 7]: 6.70

- inhibition at 10 µM ([2]; human synovial fluid): 38.7%
SMILES: COc1ccc(OCCCC#CC(=O)C(F)(F)F)cc1 [Example 5, 1,1,1-Trifluoro-7-(4-methoxyphenoxy)-3-heptyn-2-one]

- inhibition at 10 µM ([2]; human synovial fluid): 84.8%
SMILES: O=C(C#CCCCN1c2cccc3cccc(c23)S1(=O)=O)C(F)(F)F [Example 6, 1,1,1-Trifluoro-7-(2H-naphth[1,8-cd]isothiazol-2-yl)-3-heptyn-2-one S,S-dioxide]

SMILES: O=C(C#CCCCOc1ccc(Cl)cc1)C(F)(F)CCc1ccccc1 [Example 7, 9-(4-Chlorophenoxy)-3,3-difluoro-1-phenyl-5-nonyn-4-one]
- inhibition at 10 µM [4]: 72%
- inhibition at 10 µM [5]: 40%
- pIC50 [2, 7]: 6.05

- inhibition at 10 µM ([2]; human synovial fluid): 90.5%
SMILES: O=C(C#CCCCOc1cccc(C(F)(F)F)c1)C(F)(F)F [Example 8, 1,1,1-Trifluoro-7-[3-(trifluoromethyl)phenoxy]-3-heptyn-2-one]

- inhibition at 10 µM ([2]; human synovial fluid): 19.8%
SMILES: CC(C)(C#CC(=O)C(F)(F)F)CCOc1ccc(Cl)cc1 [Example 9, 7-(4-Chlorophenoxy)-5,5-dimethyl-1,1,1-trifluoro-3-heptyne-2-one]

- inhibition at 10 µM ([2]; human synovial fluid): 94.2%
SMILES: O=C(C#CCCCCOc1ccc(Cl)cc1)C(F)(F)F [Example 10, 8-(4-Chlorophenoxy)-1,1,1-trifluoro-3-octyn-2-one]

- inhibition at 10 µM ([1]; human platelet): 26.5%
- inhibition at 10 µM ([2]; human synovial fluid): 94.6%
SMILES: O=C(C#CCCCOc1ccc(Cl)c2ccccc12)C(F)(F)F [Example 11, 7-[(4-Chloro-1-naphthalenyl)oxy]-1,1,1-trifluoro-3-heptyn-2-one]

- inhibition at 10 µM ([2]; human synovial fluid): 58.8%
SMILES: CC(C)(C#CC(=O)C(F)(F)F)Oc1ccc(OC(F)(F)F)cc1 [Example 12, 1,1,1-Trifluoro-5-methyl-5-[4-(trifluoromethoxy)phenoxy]-3-hexyn-2-one]

SMILES: CC(C)Cc1ccc(C(C)C(=O)O)cc1 (stereo not drawn) [Ibuprofen]
- ED50 ([6]; standard drugs): 7 mg/kg

SMILES: COc1ccc2c(c1)c(CC(=O)O)c(C)n2C(=O)c1ccc(Cl)cc1 [Indomethacin]
- ED50 [6]: 0.126 mg/kg

SMILES: CC(=CCCC1=CCC(C2=CC(=O)OC2O)OC1O)CCC1=C(C)CCCC1(C)C (stereo not drawn) [Monoalide, reference compound]
- pIC50 [1]: 4.60
- pIC50 [2]: 6.85

SMILES: O=C1CCN(c2ccccc2)N1 [Phenidone]
- ED50 [3]: 24 mg/kg
- ED50 ([6]; standard drugs): < 30 mg/kg

— patent publication US5070207A, “Phospholipase A2 inhibitors” (American Home Products Corporation, priority 1990, dated 1991)
